Source: ChEMBL document CHEMBL1201862, “PubChem BioAssay data set” (2004)
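Each compound was tested at five concentrations against cells in 96-well plates for 48 hours. GI50 = concentration required for 50% inhibition of growth.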 The source made the active and inactive calls. Cut-off read from the data, not from the text of the source: active = GI50 up to about 1.1 µM and inactive = higher.

How the values were obtained:
Test in all cases: NCI tumour cell line growth inhibition, 48 h
[1] = system: 786-0
[2] = system: BT-549
[3] = system: HOP-62
[4] = system: HT-29
[5] = system: IGROV-1
[6] = system: KM12
[7] = system: M14
[8] = system: MDA-MB-231
[9] = system: MOLT-4
[10] = system: NCI-H23
[11] = system: OVCAR-4
[12] = system: OVCAR-8
[13] = system: PC-3
[14] = system: RPMI-8226
[15] = system: SF-268
[16] = system: SF-295
[17] = system: SF-539
[18] = system: SK-OV-3
[19] = system: SN12C
[20] = system: SNB-75

Measured: GI50

Cc1ccc(/C=C2/N/C(=N\N=C/c3ccccc3)NC2=O)cc1
inactive: [1] 20.3 µM | [2] 29.9 µM | [3] 54.6 µM | [4] 46.3 µM | [5] 51.6 µM | [6] > 100 µM | [7] 31.7 µM | [8] 42.1 µM | [9] 21.9 µM | [10] 54.2 µM | [11] 14.8 µM | [12] 42.5 µM | [13] 48.5 µM | [14] 16.2 µM | [15] 77.1 µM | [16] 28.9 µM | [17] 44.4 µM | [18] 40.3 µM | [19] 45.7 µM | [20] 31.3 µM

CN(C)Cc1cc(/N=N/c2c(Cl)cccc2Cl)ccc1O
inactive: [1] 64.1 µM | [2] 49 µM | [3] > 100 µM | [4] 50.4 µM | [5] 61.4 µM | [6] > 100 µM | [7] > 10 µM | [8] > 100 µM | [9] 67.3 µM | [10] 63.4 µM | [11] > 100 µM | [12] > 100 µM | [13] > 100 µM | [14] 74.8 µM | [15] > 100 µM | [16] > 100 µM | [17] > 100 µM | [18] > 100 µM | [19] > 100 µM | [20] > 100 µM

C=CCC1(C(=O)OC)CCC/C(=N\O)C1 (stereo not given)
inactive: [1] > 10 µM | [2] > 10 µM | [3] > 10 µM | [4] > 10 µM | [5] > 10 µM | [6] > 10 µM | [7] > 10 µM | [8] > 10 µM | [9] > 10 µM | [10] > 10 µM | [11] > 10 µM | [12] > 10 µM | [13] > 10 µM | [14] > 10 µM | [15] > 10 µM | [16] > 10 µM | [17] > 10 µM | [18] > 10 µM | [19] > 10 µM | [20] > 10 µM

Cc1ccc(F)cc1NC(=O)O/N=C(\Cl)C(C)C
inactive: [1] 5.69 µM | [2] 2.18 µM | [3] 19.5 µM | [4] 14.6 µM | [5] 17.2 µM | [6] 16.9 µM | [7] 5.22 µM | [8] 14.1 µM | [9] 1.6 µM | [10] 17.9 µM | [11] 16 µM | [12] 17.5 µM | [13] 18 µM | [14] 2.17 µM | [15] 24.5 µM | [16] 28.5 µM | [17] 7.21 µM | [18] 20.2 µM | [19] 6.11 µM | [20] 14.8 µM

O=c1[nH]c(Nc2ccc(Br)c(C(F)(F)F)c2)nc2[nH]cnc12
inactive: [1] 40.1 µM | [2] 62.7 µM | [3] 48.8 µM | [4] 27.6 µM | [5] 40.4 µM | [6] 29 µM | [7] 30.5 µM | [8] 63.8 µM | [9] 32 µM | [10] 38.5 µM | [11] 47.1 µM | [12] 42.9 µM | [13] 37.7 µM | [14] 47.3 µM | [15] 28.5 µM | [16] 54.1 µM | [17] 34.5 µM | [18] 45.1 µM | [19] 43.3 µM | [20] 25.6 µM

CC(C)(C)NC(=O)CCC1C(C(=O)NC(C)(C)C)C2(Cl)C(Cl)=C(Cl)C1(Cl)C2(Cl)Cl (stereo not given)
inactive: [1] > 100 µM | [2] > 100 µM | [3] > 100 µM | [4] > 100 µM | [5] > 100 µM | [6] > 100 µM | [7] > 100 µM | [8] > 100 µM | [9] > 100 µM | [10] > 100 µM | [11] > 100 µM | [12] > 100 µM | [13] > 100 µM | [14] > 100 µM | [15] > 100 µM | [16] > 100 µM | [17] > 100 µM | [18] > 100 µM | [19] > 100 µM | [20] > 100 µM

O=C(C[n+]1ccccc1)N/N=C(\C(=O)NC1=C(Cl)C(=O)c2ccccc2C1=O)c1c(O)c2ccc(O)cc2oc1=O
inactive: [1] 4.93 µM | [2] 5.14 µM | [3] 10.4 µM | [4] 3.08 µM | [5] 2.41 µM | [6] 4.85 µM | [7] 3.5 µM | [8] 7.73 µM | [9] 11 µM | [10] 2.52 µM | [11] 3.08 µM | [12] 3.66 µM | [13] 2.77 µM | [14] 5.96 µM | [15] 9.77 µM | [16] 3.05 µM | [17] 4.28 µM | [18] 14.1 µM | [19] 4.44 µM | [20] 6.5 µM

C#CCn1c(I)cc2c(c1=O)COC(=O)[C@]2(O)CC
inactive: [1] > 100 µM | [2] > 100 µM | [3] > 100 µM | [4] > 100 µM | [5] > 100 µM | [6] > 100 µM | [7] > 100 µM | [8] > 100 µM | [9] > 100 µM | [10] > 100 µM | [11] > 100 µM | [12] > 100 µM | [13] > 100 µM | [14] > 100 µM | [15] > 100 µM | [16] > 100 µM | [17] > 100 µM | [18] > 100 µM | [19] > 100 µM | [20] > 100 µM

Cc1ccc(S(=O)(=O)NC(=O)Nc2ccc(C(=O)O)cc2)cc1
inactive: [1] > 100 µM | [2] > 100 µM | [3] > 100 µM | [4] > 100 µM | [5] > 100 µM | [6] > 100 µM | [7] > 100 µM | [8] > 100 µM | [9] > 100 µM | [10] > 100 µM | [11] > 100 µM | [12] > 100 µM | [13] > 100 µM | [14] > 100 µM | [15] > 100 µM | [16] > 100 µM | [17] > 100 µM | [18] > 100 µM | [19] > 100 µM | [20] > 100 µM

Clc1ccc(OCC2NC3CCC2CC3)cn1 (stereo not given)
inactive: [1] 18.3 µM | [2] 68.7 µM | [3] 22.8 µM | [4] 17.9 µM | [5] 38.2 µM | [6] 18.4 µM | [7] 21.2 µM | [8] 19.1 µM | [9] 17.2 µM | [10] 49.2 µM | [11] 37.9 µM | [12] 31.5 µM | [13] 25.6 µM | [14] 13.4 µM | [15] 51.6 µM | [16] 19.8 µM | [17] 20.7 µM | [18] 52.7 µM | [19] 28.4 µM | [20] 61 µM
